Assay results published in patent US10392394B2, “Antimicrobial compounds and methods” (Board of Supervisors of Louisiana State University and …, priority 2013, dated 2019).

What was measured:
[1] = test system: Human gingival fibroblasts; test: Biocompatibility (cytotoxicity) test, Calcein-AM cell survival; type: cell-based; details: 24 h exposure, FIG. 1
Experimental: Synthesized monomers (Formulas 4-6, 10, and 11) and methacryloyloxyundecyldi-methylbenzylammonium bromide (Formula 1) were tested for biocompatibility (cytotoxicity). Human gingival fibroblasts were obtained from extracted molars from patients with healthy gingival following informed consent as prescribed in an approved IRB protocol. Gingival fibroblasts were maintained in MEM containing 10% fetal calf serum (FCS) and 200 units/mL penicillin and 200 μg/mL streptomycin. Cells were grown in 48-well plates for 24 h prior to exposure to the monomers. The growth media containing 0.1% dimethylsulfoxide (DMSO) were supplemented with 10^−4 M, 10^−5 M, 10^−6 M and 10^−7 M concentrations of five newly synthesized exemplary monomers (Formulas 4-6, 10, and 11) and added to the cells for 24 h. MEM served as a control for cytotoxicity. Cell survival was visualized using a fluorescent esterase substrate (Calcein-AM) and a inverted fluorescent microscope. Cell survival was quantified using a fluorescent multi-well plate reader.

[2] = test system: Streptococcus mutans, Lactobacillus casei, Staphylococcus aureus and Pseudomonas aeruginosa; test: Antimicrobial activity, automated growth curve analysis; type: cell-based; details: 10^−4 M-10^−7 M in BMGS medium, triplicate, FIG. 2
Experimental: Evaluation of antimicrobial activities of Formula 1 and synthesized monomers (Formulas 4-6, 10, and 11) was also performed. Streptococcus mutans was grown in brain heart infusion (BHI, Difco Laboratories, Detroit, Mich.), Lactobacillus casei was grown in MRS medium (Difco), Staphylococcus aureus and Pseudomonas aeruginosa were grown in Trypticase Soy Broth (TSB; Difco). They all were grown under static conditions in an 37° C. aerobic chamber with (for S. mutans only) or without 5% CO2. For antimicrobial assay, these bacteria were cultivated using a modified semi-defined biofilm medium (BM) with glucose (18 mM) and sucrose (2 mM) (BMGS) as the supplemental carbohydrate sources. Antimicrobial efficacy was measured using an automated growth curve analysis system. Overnight cultures were transferred to fresh medium and allowed to grow to mid-exponential phase, when they were properly diluted in BMGS and allowed to grow in the automated growth curve analysis system with and without inclusion of Formula 1 and synthesized monomers (Formulas 4-6, 10, and 11). All antimicrobial monomers were dissolved in DMSO at 10^−2 M concentration and serial dilutions were made to achieve the desired concentrations (10^−4 M-10^−7 M). All experiments were run in triplicate.

[3] = concentrations of 10^−5 M and below

With `C=C(C)C(=O)OCC(COC(=O)C(=C)C)OC(=O)CCCCCCCCC[N+]12CCN(CC1)CC2.[Br-]` [Formula 4, 2-(1,3-dimethacryloyloxy)propyl 10-(1-(1-azonia-4-azabicylco[2.2.2]octyl))decanoate bromide] the “cytotoxicity (cell survival)” value ([1]; 10^−4 M concentration) was “little cytotoxicity”.

`C=C(C)C(=O)OCC(COC(=O)C(=C)C)OC(=O)CCCCCCCCCCCCCCC[N+]12CCN(CC1)CC2.[Br-]` [Formula 5, 2-(1,3-dimethacryloyloxy)propyl 16-(1-(1-azonia-4-azabicylco[2.2.2]octyl))hexadecanoate bromide] was tested, and the antibacterial activity [2] was “Highest levels of antibacterial activity”, the “cytotoxicity (cell survival)” value ([1]; 10^−4 M concentration) was “significant cell death” and the “cytotoxicity (cell survival)” value [1, 3] was “good biocompatibility”.

In the case of `C=C(C)C(=O)OCC(COC(=O)C(=C)C)OC(=O)CCCCCCCCCCCCCCC[N+](C)(C)Cc1ccccc1` [Formula 6, 2-(1,3-dimethacryloyloxy)propyl 16-N,N-dimethylbenzylammoniumhexadecanoate bromide], the antibacterial activity [2] is reported as “Highest levels of antibacterial activity”, the “cytotoxicity (cell survival)” value ([1]; 10^−4 M concentration) is reported as “significant cell death” and the “cytotoxicity (cell survival)” value [1, 3] is reported as “good biocompatibility”.

`C=C(C)C(=O)OCCCCCCCCCCCCCCCC[N+]12CCN(CC1)CC2.[Br-]` [Formula 11, 16-(1-azonia-4-azabicylco[2.2.2]octyl)hexadecylmethacrylate bromide] was tested, and the “cytotoxicity (cell survival)” value ([1]; 10^−4 M concentration) was “little cytotoxicity”.
